This assay relates to PKC mediated IL-2 production. Nature of the assay: IL-2 ELISA, human primary T cell, anti CD3+CD28+ (whole cell functional assay). Format: cell-based. The method, then:
Human primary T cells were prepared as follows. Fresh PBMC's from All Cells (Cat # PB002) were re-suspended in RPMI (RPMI-1640 with L-Glutamine; Mediatech, Inc., Herndon Va., cat. #10-040-CM) with 10% FBS and seeded into flasks and incubated at 37° C. for 2 hours to allow the monocytes to adhere. The non-adherent cells were then centrifuged and re-suspended in RPMI medium containing 40 U/ml IL2 and seeded into a flask pre-coated with 1 μg/ml aCD3 and 5 ug/ml aCD28 (Anti-Human CD3, BD Pharmingen Catalog #555336, Anti-Human CD28, Beckman Coulter Catalog # IM1376). The cells were stimulated for 3-4 days, then transferred to a fresh flask and maintained in RPMI (RPMI-1640 with L-Glutamine; Mediatech, Inc., Herndon Va., cat. #10-040-CM) with 10% FBS and 40 U/ml IL-2.
(§1) Human primary T cells (100,000 cells per well) were pre-incubated with or without test compound in RPMI-1640 with L-Glutamine and 10% FBS for 1 hour at 37° C. Cells were then stimulated by transferring them to round-bottom 96-well plates pre-coated with 1 μg/ml αCD3 and 5 μg/ml αCD28. For counter assay, cells were instead stimulated by adding 8× stock solutions of PMA and ionomycin in RPMI-1640 with L-Glutamine and 10% FBS (for final concentrations of 0.5 ng/ml PMA and 0.1 μM ionomycin, both from Calbiochem). Cells were incubated at 37° C. for 24 hours before 100 μL supernatants were harvested for quantification of IL-2 by ELISA using Human IL-2 Duoset ELISA Kit from R and D Systems, Cat. # DY202E.
Compounds 1-90 were tested in a whole cell functional assay for PKC mediated IL-2 production as follows. Human primary T cell isolation and culture: Human primary T cells were prepared as follows. Whole blood was obtained from a healthy volunteer, mixed 1:1 with PBS, layered on to Ficoll Hypaque (Amersham Pharmacia Biotech, Piscataway, N.J., Catalog #17-1440-03) in 2:1 blood/PBS:ficoll ratio and centrifuged for 30 minutes at 4° C. at 1750 rpm. The cells at the serum: ficoll interface were recovered and washed twice with 5 volumes of PBS. These freshly isolated human peripheral blood mononuclear cells were cultured in Yssel's medium containing 40 U/ml IL2 in a flask pre-coated with 1 μg/ml αCD3 and 5 μg/ml αCD28 (Anti-Human CD3, BD Pharmingen Catalog #555336, Anti-Human CD28, Beckman Coulter Catalog # IM1376). The cells were stimulated for 3-4 days, then transferred to a fresh flask and maintained in RPMI (RPMI-1640 with L-Glutamine; Mediatech, Inc., Herndon Va., cat. #10-040-CM) with 10% FBS and 40 U/ml IL-2. The primary T-cells were then washed twice with PBS to remove the IL-2.
as §1, with “Primary T cell stimulation and IL2 ELISA: Human primary” for “Human primary”, “compound in Yssel's medium for 1” for “compound in RPMI-1640 with L-Glutamine and 10% FBS for 1”, “ionomycin in Yssels (for final” for “ionomycin in RPMI-1640 with L-Glutamine and 10% FBS (for final”, “and 0.1 uM ionomycin, both” for “and 0.1 μM ionomycin, both”

[1] abbreviates: Homo sapiens, T-cell, 24 h, IL-2 production, human primary T cells stimulated with αCD3 and αCD28, 24 hours, IL-2 by ELISA, read-out: EC50.
The mark [2] stands for this setting: Homo sapiens, T-cell, human primary T cells stimulated with αCD3 and αCD28, IL-2 by ELISA, read-out: EC50 (blocked IL-2 production).
[3] abbreviates: IL-2 production, human primary T cells stimulated with αCD3 and αCD28, 24 hours, IL-2 by ELISA, read-out: EC50.

Like-named read-outs stand apart in the source and are kept apart here.

As usually defined, the EC50 is the concentration at which the effect is half-maximal. For `COc1cc(F)c(Nc2ncc(F)c(N[C@@H]3C[C@@H]4CCCN4C(C)(C)C3)n2)cc1-n1nnn(C)c1=O` [Compound 22, 1-(5-(4-((7R,8aS)-5,5-dimethyl-octahydroindolizin-7-ylamino)-5-fluoropyrimidin-2-ylamino)-4-fluoro-2-methoxyphenyl)-4-methyl-1H-tetrazol-5(4H)-one], the concentration giving a half-maximal response (EC50) under setting [1] was less than 0.5 µM and the concentration for a half-maximal effect (EC50) under setting [2] is less than 10 µM.
In the case of `Cn1nnn(-c2cc(Nc3ncc(F)c(N[C@H]4C[C@@H]5CC(F)(F)CN5C(C)(C)C4)n3)c(F)cc2C2CC2)c1=O` [Compound 42, 1-(5-(4-((7S,8aR)-2,2-difluoro-octahydro-5,5-dimethylindolizin-7-ylamino)-5-fluoropyrimidin-2-ylamino)-2-cyclopropyl-4-fluorophenyl)-4-methyl-1H-tetrazol-5(4H)-one], the 50% effective concentration (EC50) is, setting by setting: under setting [1], less than 10 µM; under setting [2], less than 10 µM.
Take `CC1(C)CC(Nc2nc(Nc3ccc(O[C@H]4CCOC4)c(C#N)c3)ncc2F)CC2CCCN21` (single isomer, unassigned) [Compound 62]: the EC50 under setting [3] is less than 0.5 µM.
As to `CC1C(Nc2nc(Nc3cc(N(C)C(=O)N(C)C)c(C4CC4)cc3F)ncc2F)CC(C)(C)N2CCCC12` (stereo not drawn) [Compound 74], the EC50 under setting [3] is less than 0.5 µM.
Take `Cn1nnn(-c2cc(Nc3ncc(F)c(NC4CC5CCCN5C(C)(C)C4)n3)ccc2O[C@@H]2CCOC2)c1=O` (stereo partly drawn) [Compound 47, 1-(2-((R)-tetrahydrofuran-3-yloxy)-5-(5-fluoro-4-(octahydro-5,5-dimethylindolizin-7-ylamino)pyrimidin-2-ylamino)phenyl)-4-methyl-1H-tetrazol-5(4H)-one]: the 50% effective concentration (EC50) under setting [1] is less than 0.1 µM and the EC50 under setting [2] is less than 10 µM.
In the case of `Cn1nnn(-c2cc(Nc3ncc(F)c(NC4CCN5CCCC5C4)n3)c(F)cc2C2CC2)c1=O` (stereo not drawn) [Compound 29], under setting [3], the concentration for a half-maximal effect (EC50) is less than 10 µM.
Regarding `Cn1nnn(-c2cc(Nc3ncc(F)c(N[C@@H]4C[C@@H]5CC(F)(F)CN5C(C)(C)C4)n3)c(F)cc2C2CC2)c1=O` [Compound 45, 1-(5-(4-((7R,8aR)-2,2-difluoro-octahydro-5,5-dimethylindolizin-7-ylamino)-5-fluoropyrimidin-2-ylamino)-2-cyclopropyl-4-fluorophenyl)-4-methyl-1H-tetrazol-5(4H)-one], the EC50 by setting is: under setting [1], less than 10 µM; under setting [2], less than 10 µM.
In the case of `CC1C(Nc2nc(Nc3cc(-n4nnn(C)c4=O)c(C4CC4)cc3F)ncc2F)CC(C)(C)N2CCCC12` (single isomer, unassigned) [Compound 69, 1-(5-(5-Fluoro-4-(octahydro-5,5,8-trimethylindolizin-7-ylamino)pyrimidin-2-ylamino)-2-cyclopropyl-4-fluorophenyl)-4-methyl-1H-tetrazol-5(4H)-one], the EC50 is less than 1 µM under setting [1] and less than 10 µM under setting [2].
With `Cc1ccc(Nc2ncc(F)c(N[C@H]3C[C@@H]4CC(F)(F)CN4C(C)(C)C3)n2)cc1C#N` [Compound 44, (4-((7S,8aR)-2,2-difluoro-octahydro-5,5-dimethylindolizin-7-ylamino)-5-fluoropyrimidin-2-ylamino)-2-methylbenzonitrile], the concentration for a half-maximal effect (EC50) by setting is: under setting [1], less than 10 µM; under setting [2], less than 10 µM.
Consider `Cn1nnn(-c2cc(Nc3ncc(F)c(NC4CCN5C(CCC5(C)C)C4)n3)c(F)cc2C2CC2)c1=O` (stereo not drawn) [Compound 26], for which the EC50 runs as follows: under setting [1], less than 10 µM; under setting [2], less than 10 µM.
Consider `Cc1nnnn1-c1cc(Nc2ncc(F)c(NC3CCN4CCCC4C3)n2)c(F)cc1C1CC1` (racemic) [Compound 28, (±)-N2-(4-cyclopropyl-2-fluoro-5-(5-methyl-1H-tetrazol-1-yl)phenyl)-5-fluoro-n^4-(octahydroindolizin-7-yl)pyrimidine-2,4-diamine], for which the half-maximal effective concentration (EC50) under setting [1] is less than 0.1 µM and the EC50 under setting [2] is less than 10 µM.
In the case of `C[C@H](O)COc1cc(F)c(Nc2ncc(C#N)c(N[C@@H]3C[C@@H]4CCCN4C(C)(C)C3)n2)cc1-n1nnn(C)c1=O` [Compound 79, 4-((7R,8aS)-octahydro-5,5-dimethylindolizin-7-ylamino)-2-(4-((S)-2-hydroxypropoxy)-2-fluoro-5-(4,5-dihydro-4-methyl-5-oxotetrazol-1-yl)phenylamino)pyrimidine-5-carbonitrile], the 50% effective concentration (EC50) is less than 0.1 µM under setting [1] and less than 10 µM under setting [2].
For the compound `C[C@H](O)COc1cc(F)c(Nc2ncc(F)c(N[C@@H]3C[C@@H]4CCCN4C(C)(C)C3)n2)cc1-n1nnn(C)c1=O` [Compound 81, 1-(2-((S)-2-hydroxypropoxy)-5-(4-((7R,8aS)-octahydro-5,5-dimethylindolizin-7-ylamino)-5-fluoropyrimidin-2-ylamino)-4-fluorophenyl)-4-methyl-1H-tetrazol-5(4H)-one], the EC50 by setting is: under setting [2], less than 10 µM; (T-cell, IL-2 production, human primary T cells stimulated with αCD3 and αCD28, 24 hours, IL-2 by ELISA, read-out: EC50) less than 0.1 µM.
Turning to `Cn1nnn(-c2cc(Nc3ncc(F)c(N[C@@H]4CCN5C(CCC5(C)C)C4)n3)c(F)cc2C2CC2)c1=O` (mixture of isomers) [Compound 25], under setting [3], the concentration giving a half-maximal response (EC50) was less than 10 µM.
`CC1(C)C[C@@H](Nc2nc(Nc3cc(-n4cnnn4)c(C4CC4)cc3F)ncc2F)C[C@@H]2CC(F)(F)CN21` [Compound 43, N^2-(4-cyclopropyl-2-fluoro-5-(1H-tetrazol-1-yl)phenyl)-5-fluoro-N^4-((7S,8aR)-2,2-difluoro-octahydro-5,5-dimethylindolizin-7-yl)pyrimidine-2,4-diamine]: the concentration giving a half-maximal response (EC50) was less than 10 µM under setting [1] and less than 10 µM under setting [2].
For `Cn1nnn(-c2cc(Nc3ncc(F)c(N[C@@H]4C[C@@H]5CCCN5C(C)(C)C4)n3)c(F)cc2OC2COC2)c1=O` [Compound 88, 1-(5-(4-((7R,8aS)-octahydro-5,5-dimethylindolizin-7-ylamino)-5-fluoropyrimidin-2-ylamino)-4-fluoro-2-(oxetan-3-yloxy)phenyl)-4-methyl-1H-tetrazol-5(4H)-one], the 50% effective concentration (EC50) was less than 0.5 µM under setting [1] and less than 10 µM under setting [2].
Consider `CC1(C)CC(Nc2nc(Nc3ccc(O[C@@H]4CCOC4)c(C#N)c3)ncc2F)CC2CCCN21` (stereo partly drawn) [Compound 57, 2-((R)-tetrahydrofuran-3-yloxy)-5-(5-fluoro-4-(octahydro-5,5-dimethylindolizin-7-ylamino)pyrimidin-2-ylamino)benzonitrile], for which the EC50 runs as follows: under setting [1], less than 0.5 µM; under setting [2], less than 10 µM.
Turning to `CC1(C)CC(Nc2nc(Nc3ccc(O[C@H]4CCOC4)c(C#N)c3)ncc2F)CC2CCCN21` (single isomer, unassigned) [Compound 61], the half-maximal effective concentration (EC50) is, setting by setting: under setting [1], less than 1 µM; under setting [2], less than 10 µM.
Turning to `Cc1nnnn1-c1cc(Nc2ncc(F)c(NC3CC(C)(C)N4CCCC4C3C)n2)ccc1F` (single isomer, unassigned) [Compound 70, 5-Fluoro-N2-(4-fluoro-3-(5-methyl-1H-tetrazol-1-yl)phenyl)-N4-(octahydro-5,5,8-trimethylindolizin-7-yl)pyrimidine-2,4-diamine], the EC50 runs as follows: under setting [1], less than 10 µM; under setting [2], less than 10 µM.
On to `Cn1nnn(-c2cc(Nc3ncc(C#N)c(N[C@@H]4C[C@@H]5CCCN5C(C)(C)C4)n3)c(F)cc2OCCO)c1=O` [Compound 78, 4-((7R,8aS)-octahydro-5,5-dimethylindolizin-7-ylamino)-2-(4-(2-hydroxyethoxy)-2-fluoro-5-(4,5-dihydro-4-methyl-5-oxotetrazol-1-yl)phenylamino)pyrimidine-5-carbonitrile], for which the EC50 by setting is: under setting [1], less than 0.1 µM; under setting [2], less than 10 µM.

(Values after patent US10792282B2, “Protein kinase C inhibitors and uses thereof” (Rigel Pharmaceuticals, Inc., priority 2013, dated 2020).)
